A word on the EC50: it is the concentration giving half of the maximal effect.

T1 sequence (Q14416 19-872): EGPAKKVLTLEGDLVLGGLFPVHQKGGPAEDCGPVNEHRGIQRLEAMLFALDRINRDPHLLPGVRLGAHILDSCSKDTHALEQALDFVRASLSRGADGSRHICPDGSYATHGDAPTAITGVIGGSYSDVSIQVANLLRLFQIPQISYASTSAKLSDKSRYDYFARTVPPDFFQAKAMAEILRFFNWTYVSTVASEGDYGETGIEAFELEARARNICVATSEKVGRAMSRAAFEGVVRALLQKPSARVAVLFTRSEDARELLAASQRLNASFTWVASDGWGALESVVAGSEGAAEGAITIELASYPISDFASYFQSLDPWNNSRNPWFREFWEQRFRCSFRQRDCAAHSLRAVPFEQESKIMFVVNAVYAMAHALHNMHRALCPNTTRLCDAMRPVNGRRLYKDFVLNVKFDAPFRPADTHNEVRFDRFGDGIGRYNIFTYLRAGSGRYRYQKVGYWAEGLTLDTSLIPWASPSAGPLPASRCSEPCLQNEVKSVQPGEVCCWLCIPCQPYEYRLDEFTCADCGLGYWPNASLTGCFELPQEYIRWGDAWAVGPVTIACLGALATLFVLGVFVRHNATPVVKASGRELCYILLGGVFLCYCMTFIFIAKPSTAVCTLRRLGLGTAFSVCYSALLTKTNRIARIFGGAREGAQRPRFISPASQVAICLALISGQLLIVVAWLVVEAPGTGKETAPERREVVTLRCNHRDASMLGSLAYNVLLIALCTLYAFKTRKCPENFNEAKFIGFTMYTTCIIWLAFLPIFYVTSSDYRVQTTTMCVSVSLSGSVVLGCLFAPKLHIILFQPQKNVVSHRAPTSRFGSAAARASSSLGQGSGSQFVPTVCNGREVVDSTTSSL

This test has as its target T1, human mGluR2 (Homo sapiens, UniProt Q14416).
T1 construct: expressed in transfected cells
Description: [35S]-GTPγS binding assay of mGluR2 receptor activation (allosteric activator activity). Format: biochemical. As to conditions: membranes from CHO cells stably expressing human mGluR2; in presence of 1 μM glutamate. The method, then: A [^35S]-GTPγS binding assay was used to functionally assay mGluR2 receptor activation. The allosteric activator activity of compounds at the human mGluR2 receptor was measured using a [^35S]-GTPγS binding assay with membranes prepared from CHO cells which stably express the human mGluR2. The assay is based upon the principle that agonists bind to G-protein coupled receptors to stimulate GDP-GTP exchange at the G-protein. Since [^35S]-GTPγS is a non-hydrolysable GTP analog, it can be used to provide an index of GDP-GTP exchange and, thus, receptor activation. The GTPγS binding assay therefore provides a quantitative measure of receptor activation.
Membranes were prepared from CHO cells stably transfected with human mGluR2. Membranes (30 μg protein) were incubated with test compound (3 nM to 300 μM) for 15 minutes at room temperature prior to the addition of 1 μM glutamate, and incubated for 30 min at 30° C. in 500 μl assay buffer (20 mM HEPES, 100 mM NaCl, 10 mM MgCl2), containing 30 μM GDP and 0.1 nM [^35S]-GTPγS (1250 Ci/mmol). Reactions were carried out in triplicate in 2 ml polypropylene 96-well plates. Reactions were terminated by vacuum filtration using a Packard 96-well harvester and Unifilter-96, GF/B filter microplates. The filter plates were washed 4×1.5 ml with ice-cold wash buffer ([…] sodium phosphate buffer, pH 7.4). The filter plates were dried and 35 μl of scintillation fluid (Microscint 20) was added to each well. The amount of radioactivity bound was determined by counting plates on the Packard TopCount. Data was analyzed using GraphPad Prism, and EC50 and Emax values (relative to the maximum glutamate effect) were calculated using non-linear regression.
(In general: GTPγS resists hydrolysis and so accumulates on activated G proteins.)
On to `CCn1c(CN2CCC(c3ccccc3)(c3ccccc3)CC2)nc2ccccc21` [Example 1.54, 2-(4,4-Diphenyl-piperidin-1-ylmethyl)-1-ethyl-1H-benzoimidazole], for which the EC50 came out at 1040 nM.

On to `Cc1cccc2nc(CN3CCC(CCOc4ccc(F)c(F)c4)CC3)n(C)c12` [Example 1.2, 2-{4-[2-(3,4-Difluoro-phenoxy)-ethyl]-piperidin-1-ylmethyl}-1,7-dimethyl-1H-benzoimidazole], for which the EC50 is 57 nM.

For `Cn1c(CN2CCN(c3ccc(Cl)c(Cl)c3)CC2)nc2ccccc21` [Example 26.8, 2-[4-(3,4-Dichloro-phenyl)-piperazin-1-ylmethyl]-1-methyl-1H-benzoimidazole], the EC50 was 187 nM.

In the case of `Cn1c(CN2CCC(O)(c3ccc(Cl)cc3)CC2)nc2ccccc21` [Example 1.75, 4-(4-Chloro-phenyl)-1-(1-methyl-1H-benzoimidazol-2-ylmethyl)-piperidin-4-ol], the EC50 came to 8610 nM.

As to `Cc1cccc2nc(CN3CCC(c4ccc(F)cc4)CC3)n(C)c12` [Example 1.49, 2-[4-(4-Fluoro-phenyl)-piperidin-1-ylmethyl]-1,7-dimethyl-1H-benzoimidazole], the EC50 stood at 79.5 nM.
